From the NIST ThermoML archive (doi:10.1021/je034017j)
Numbers after ± are expanded uncertainties.

Columns and labels:
[1] = xn = mol fraction of the nth substance listed; details: 101 kPa, Liquid
[2] = Liquid; for viscosity: 101.33 kPa; for mass density: 101 kPa

CCCCCCC(=O)OC [methyl heptanoate] + CCCCCCO
[1]
Details	kinematic viscosity [m2/s]	mass density [kg/m3]
293.15 K, x1 = 0.0702	5.11e-06 ± 5.7e-08	824.02 ± 0.3
293.15 K, x1 = 0.1168	4.4e-06 ± 5e-08	827.4 ± 0.3
293.15 K, x1 = 0.189	3.59e-06 ± 4.1e-08	832.46 ± 0.31
293.15 K, x1 = 0.3018	2.76e-06 ± 3.2e-08	840.04 ± 0.32
293.15 K, x1 = 0.3966	2.31e-06 ± 2.7e-08	846.13 ± 0.33
293.15 K, x1 = 0.4898	1.99e-06 ± 2.4e-08	851.87 ± 0.35
293.15 K, x1 = 0.594	1.74e-06 ± 2.1e-08	858.04 ± 0.36
293.15 K, x1 = 0.7085	1.52e-06 ± 1.9e-08	864.51 ± 0.38
293.15 K, x1 = 0.7917	1.42e-06 ± 1.8e-08	869.04 ± 0.39
293.15 K, x1 = 0.8937	1.32e-06 ± 1.7e-08	874.45 ± 0.41
293.15 K, x1 = 0.937	1.29e-06 ± 1.6e-08	876.69 ± 0.42
293.15 K, x1 = 1	1.26e-06 ± 1.6e-08	879.96 ± 0.43
303.15 K, x1 = 0.0753	3.81e-06 ± 4.3e-08	816.9 ± 0.3
303.15 K, x1 = 0.12	3.35e-06 ± 3.8e-08	819.99 ± 0.3
303.15 K, x1 = 0.1919	2.79e-06 ± 3.2e-08	824.84 ± 0.31
303.15 K, x1 = 0.2963	2.24e-06 ± 2.7e-08	831.61 ± 0.32
303.15 K, x1 = 0.4003	1.87e-06 ± 2.3e-08	838.05 ± 0.34
303.15 K, x1 = 0.4934	1.64e-06 ± 2e-08	843.6 ± 0.35
303.15 K, x1 = 0.5979	1.45e-06 ± 1.8e-08	849.6 ± 0.36
303.15 K, x1 = 0.6849	1.32e-06 ± 1.7e-08	854.38 ± 0.38
303.15 K, x1 = 0.8004	1.2e-06 ± 1.5e-08	860.53 ± 0.39
303.15 K, x1 = 0.8676	1.15e-06 ± 1.5e-08	864 ± 0.41
303.15 K, x1 = 0.9415	1.11e-06 ± 1.4e-08	867.77 ± 0.42
303.15 K, x1 = 1	1.09e-06 ± 1.4e-08	870.73 ± 0.43
313.15 K, x1 = 0.064	3.05e-06 ± 3.5e-08	808.63 ± 0.3
313.15 K, x1 = 0.1198	2.62e-06 ± 3e-08	812.36 ± 0.31
313.15 K, x1 = 0.1968	2.21e-06 ± 2.6e-08	817.35 ± 0.31
313.15 K, x1 = 0.2986	1.83e-06 ± 2.2e-08	823.7 ± 0.33
313.15 K, x1 = 0.3995	1.56e-06 ± 1.9e-08	829.76 ± 0.34
313.15 K, x1 = 0.5299	1.32e-06 ± 1.6e-08	837.23 ± 0.36
313.15 K, x1 = 0.6009	1.22e-06 ± 1.5e-08	841.13 ± 0.36
313.15 K, x1 = 0.6925	1.12e-06 ± 1.4e-08	846.03 ± 0.38
313.15 K, x1 = 0.8022	1.04e-06 ± 1.3e-08	851.72 ± 0.4
313.15 K, x1 = 0.872	9.99e-07 ± 1.3e-08	855.24 ± 0.41
313.15 K, x1 = 0.9368	9.78e-07 ± 1.3e-08	858.5 ± 0.42
313.15 K, x1 = 1	9.55e-07 ± 1.3e-08	861.65 ± 0.43

CCCCCCO [hexan-1-ol] + CCCCC(=O)OC
[1], Capillary tube (Ostwald / Ubbelohde) method, x2 = 0
Details	kinematic viscosity [m2/s]
293.15 K	6.609e-06 ± 4.4e-08
303.15 K	4.885e-06 ± 3.3e-08
313.15 K	3.688e-06 ± 2.5e-08

[1], x2 = 0
Details	mass density [kg/m3]
293.15 K	818.84 ± 0.29
303.15 K	811.56 ± 0.29
313.15 K	804.28 ± 0.3

CCCCCCC(=O)OC [methyl heptanoate]
[2]
Details	mass density [kg/m3]	viscosity [mPa·s]
283.15 K	–	1.32 ± 0.017
293.15 K	879.96 ± 0.43	1.112 ± 0.014
298.15 K	–	1.023 ± 0.013
303.15 K	870.73 ± 0.43	0.95 ± 0.013
313.15 K	861.65 ± 0.43	0.823 ± 0.011

CCCCCCCC [octane]
[2]
Details	mass density [kg/m3]	viscosity [mPa·s]
283.15 K	–	0.614 ± 0.008
293.15 K	702.54 ± 0.3	0.542 ± 0.007
298.15 K	–	0.508 ± 0.007
303.15 K	694.35 ± 0.31	0.483 ± 0.007
313.15 K	686.12 ± 0.32	0.43 ± 0.006

CCCCCCO [hexan-1-ol]
[2]
Details	mass density [kg/m3]	viscosity [mPa·s]
293.15 K	818.84 ± 0.29	5.412 ± 0.059
298.15 K	–	4.596 ± 0.051
303.15 K	811.56 ± 0.29	3.964 ± 0.045
313.15 K	804.28 ± 0.3	2.966 ± 0.034

CCCCCCCC [octane] + CCCCCCO
[1], x1 = 1
Details	kinematic viscosity [m2/s]	mass density [kg/m3]
293.15 K	7.71e-07 ± 1e-08	702.54 ± 0.3
303.15 K	6.96e-07 ± 9e-09	694.35 ± 0.31
313.15 K	6.27e-07 ± 8e-09	686.12 ± 0.32

CCCCC(=O)OC [methyl pentanoate]
[2]
Details	mass density [kg/m3]	viscosity [mPa·s]
283.15 K	–	0.816 ± 0.011
293.15 K	889.75 ± 0.47	0.712 ± 0.01
298.15 K	–	0.661 ± 0.009
303.15 K	879.51 ± 0.47	0.623 ± 0.009
313.15 K	869.32 ± 0.47	0.551 ± 0.008

CCCCCCO [hexan-1-ol] + CCCCCCC(=O)OC
[1], x2 = 0
Details	kinematic viscosity [m2/s]	mass density [kg/m3]
293.15 K	6.61e-06 ± 6.9e-08	818.84 ± 0.29
303.15 K	4.88e-06 ± 5.4e-08	811.56 ± 0.29
313.15 K	3.69e-06 ± 4.2e-08	804.28 ± 0.3
